# Results: patent publication US10316019B2, “Method for preparing the anhydrous crystalline form of isoniazid-derived hydrazone, thus produced crystalline polymorph of the anyhydrous form, use thereof for the treatment of alzheimer's disease, parkinsonism and other neurodegenerative disorders, and pharamceutical composition” (FACULDADDES CATÓLICAS, Associação sem fins Lucrativos, …, priority 2014, dated 2019)
# How the values were obtained:
# [1] = system: β-amyloid peptide and Zn(II); test: 2D 1H×15N HSQC NMR competition for Zn(II) bound to β-amyloid peptide; type: binding
# [2] = system: α-synuclein and Cu(II)/Cu(I); test: 1H NMR competition for Cu(II)/Cu(I) bound to α-synuclein; type: binding
# [3] = system: Wistar male rats; test: Acute toxicity test, intraperitoneal injection; type: in vivo; settings: i.p. up to 300 mg kg^−1, Wistar male rats
smiles,measurement,setting,value
"O=C(N/N=C/c1ccc2cccc(O)c2n1)c1ccncc1 [INHHQ, 8-hydroxyquinoline-2-carboxaldehyde isonicotinoyl hydrazone]",Direct interaction with β-amyloid peptide,[1]; 1D and 2D NMR,does not interact directly
same,Effect on Aβ HSQC signals in the presence of Zn(II) (Zn(II)-Aβ interaction),[1]; INHHQ 4 eq. added to β-amyloid peptide + Zn(II) 1 eq.,partial intensity recovery for all Aβ signals
same,Direct interaction with α-synuclein,[2]; 1D and 2D NMR,does not interact directly
same,Effect on α-synuclein methionine 1H NMR signals in the presence of copper (Cu-α-synuclein interaction),[2]; INHHQ 4 eq. added to α-synuclein + Cu(II)/Cu(I) 1 eq.,recovery of the original methionine signals' position
same,Behavioral changes,[3]; 72 h,no behavioral changes
same,Macroscopic organ abnormalities at dissection,[3]; after sacrifice,no macroscopic abnormalities
